Measured values as given in patent US11419333B2, “Compositions and methods for biofilm removal” (ChampionX USA Inc., priority 2018, dated 2022).

Test system: Pseudomonas aeruginosa
Test: Biocide test of quats in combination with THPS (ACCUCOUNT ATP)
Assay type: cell-based
Details: 400 ppm (active) quat with addition of 8% THPS, compared to untreated sample
Method: The ability of POLY SUGA quats to act as biocides was tested. […] Each quat was compared to an untreated sample as well as a sample treated with a nonpolymeric cationic quat used as a positive control. Each test contained Pseudomonas aeruginosa, grown to a final density of 1×E8 per mL of cells in 3% sodium chloride containing growth medium. 400 ppm (active) of each quat was added to the mix and incubated for 4 and 24 hrs. After this time, 10 ml aliquots of each sample were drawn for analysis.
Active microbial populations were estimated using the ACCUCOUNT method. ACCUCOUNT uses ATP concentrations measured using fluorescence to indirectly quantitate the number of active microbes in a given sample. It is assumed that each cell contains 1 fg of ATP. By correlating the detected fluorescence to a known concentration of standard-the number of bacterial cells/mL is estimated.
The ability of each quat to act together with a known biocide to reduce microbial populations was tested. […] THPS alone and a non-polymeric cationic quat+THPS were used as positive controls.

Substance: tetrakis(hydroxymethyl)phosphonium sulfate [THPS]
- % reduction in bacteria (4 Hrs.): 89.75%
- % reduction in bacteria (24 Hrs.): 91.73%
